This experiment has as its target human PDE10A2 (Homo sapiens (Human), UniProt Q9Y233). As to the kind of experiment: PDE10 fluorescence polarization (IMAP FP) inhibition assay. Format: biochemical. Conditions: FAM-labeled cAMP 50 nM, room temperature, read-out: PDE10A Ki. On the procedure: The activity of the compounds in accordance with the present invention as PDE10 inhibitors may be readily determined without undue experimentation using a fluorescence polarization (FP) methodology that is well known in the art (Huang, W., et al., J. Biomol Screen, 2002, 7: 215).
In a typical experiment the PDE10 inhibitory activity of the compounds of the present invention was determined in accordance with the following experimental method. PDE10A2 was amplified from human fetal brain cDNA (Clontech, Mountain View, Calif.) using a forward primer corresponding to nucleotides 56-77 of human PDE10A2 (Accession No. AF127480, Genbank Identifier 4894716), containing a Kozak consensus sequence, and a reverse primer corresponding to nucleotides 2406-2413 of human PDE10A2 (Accession No. AF127480, Genbank Identifier 4894716). Amplification with Easy-A polymerase (Stratagene, La Jolla, Calif.) was 95° C. for 2 minutes followed by thirty three cycles of 95° C. for 40 seconds, 55° C. for 30 seconds, and 72° C. for 2 minutes 48 seconds. Final extension was 72° C. for 7 minutes. The PCR product was TA cloned into pcDNA3.2-TOPO (Invitrogen, Carlsbad, Calif.) according to standard protocol. AD293 cells with 70-80% confluency were transiently transfected with human PDE10A2/pcDNA3.2-TOPO using Lipofectamine 2000 according to manufacturer specifications (Invitrogen, Carlsbad, Calif.). Cells were harvested 48 hours post-transfection and lysed by sonication (setting 3, 10×5 sec pulses) in a buffer containing 20 mM HEPES, 1 mM EDTA and protease inhibitor cocktail (Roche). Lysate was collected by centrifugation at 75,000×g for 20 minutes. Supernatant containing the cytoplasmic fraction was used for evaluation of PDE10A2 activity. The fluorescence polarization assay for cyclic nucleotide phosphodiesterases was performed using an IMAP® FP kit supplied by Molecular Devices, Sunnyvale, Calif. (product # R8139). IMAP® technology has been applied previously to phosphodiesterase assays (Huang, W., et al., J. Biomol Screen, 2002, 7: 215). Assays were performed at room temperature in 384-well microtiter plates with an incubation volume of 20.2 μL. Solutions of test compounds were prepared in DMSO and serially diluted with DMSO to yield 8 μL of each of 10 solutions differing by 3-fold in concentration, at 32 serial dilutions per plate. 100% inhibition is determined using a known PDE10 inhibitor, which can be any compound that is present at 5,000 times its Ki value in the assay described as follows, such as papaverine (see Siuciak, et al. Neuropharmacology (2006) 51:386-396; Becker, et al. Behav Brain Res (2008) 186(2):155-60; Threlfell, et al., J Pharmacol Exp Ther (2009) 328(3):785-795), 2-{4-[pyridin-4-yl-1-(2,2,2-trifluoroethyl)-1H-pyrazol-3-yl]phenoxymethyl}quinoline succinic acid or 2-[4-(1-methyl-4-pyridin-4-yl-1H-pyrazol-3-yl)-phenoxymethyl]quinoline succinic acid (see Schmidt, et al. J Pharmacol Exp Ther (2008) 325:681-690; Threlfell, et al., J Pharmacol Exp Ther (2009) 328(3): 785-795). 0% of inhibition is determined by using DMSO (1% final concentrations). A Labcyte Echo 555 (Labcyte, Sunnyvale, Calif.) is used to dispense 200 nL from each well of the titration plate to the 384 well assay plate. A solution of enzyme ( 1/1600 dilution from aliquots; sufficient to produce 20% substrate conversion) and a separate solution of FAM-labeled cAMP PDE from Molecular Devices (product # R7506), at a final concentration of 50 nM are made in the assay buffer (10 mM Tris HCl, pH 7.2, 10 mM MgCl2, 0.05% NaN3 0.01% Tween-20, and 1 mM DTT). The enzyme and the substrate are then added to the assay plates in two consecutive additions of 10 μL, and then shaken to mix. The reaction is allowed to proceed at room temperature for 30 minutes. A binding solution is then made from the kit components, comprised of 80% Solution A, 20% Solution B and binding reagent at a volume of 1/600 the total binding solution. […]
(In fluorescence polarisation assays a small probe gives low polarisation when free and higher when bound to something large.)
Sequence of human PDE10A2 (Q9Y233 267-1055): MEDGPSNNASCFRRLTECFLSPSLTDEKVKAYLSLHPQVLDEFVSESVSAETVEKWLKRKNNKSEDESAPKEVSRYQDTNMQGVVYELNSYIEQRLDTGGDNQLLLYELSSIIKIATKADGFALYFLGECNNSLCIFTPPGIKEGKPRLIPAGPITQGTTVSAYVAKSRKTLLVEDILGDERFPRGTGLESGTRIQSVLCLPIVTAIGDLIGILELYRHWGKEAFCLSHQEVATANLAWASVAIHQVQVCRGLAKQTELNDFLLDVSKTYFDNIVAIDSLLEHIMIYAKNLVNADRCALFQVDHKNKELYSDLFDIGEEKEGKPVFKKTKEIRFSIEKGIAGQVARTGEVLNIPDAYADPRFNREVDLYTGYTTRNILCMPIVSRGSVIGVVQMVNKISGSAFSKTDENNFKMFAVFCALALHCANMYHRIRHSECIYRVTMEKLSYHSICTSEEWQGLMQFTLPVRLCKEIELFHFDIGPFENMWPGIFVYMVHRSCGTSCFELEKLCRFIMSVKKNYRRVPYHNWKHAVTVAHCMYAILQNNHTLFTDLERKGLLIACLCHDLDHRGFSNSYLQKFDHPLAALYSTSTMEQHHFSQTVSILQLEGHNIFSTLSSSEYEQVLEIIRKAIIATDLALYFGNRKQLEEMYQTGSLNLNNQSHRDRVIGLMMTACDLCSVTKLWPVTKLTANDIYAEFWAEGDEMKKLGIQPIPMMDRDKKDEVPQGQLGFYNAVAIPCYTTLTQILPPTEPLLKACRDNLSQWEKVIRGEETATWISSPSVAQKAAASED
In general, Ki refers to the dissociation constant of the complex between target and ligand, obtained from inhibition or displacement. For `O=C(Nc1ccccc1)N1CCc2nc(-c3ccncc3)nc(NCc3ccccn3)c2C1` [Compound 1-2, N-phenyl-2-pyridin-4-yl-4-[(pyridin-2-ylmethyl)amino]-7,8-dihydropyrido[4,3-d]pyrimidine-6(5H)-carboxamide], the Ki is 192 nM.
For `COC(=O)NCCNc1nc(-c2cccnc2)nc2c1CN(C(=O)Nc1ccccc1)CC2` [Compound 1-5, methyl-(2-{[6-(anilinocarbonyl)-2-pyridin-3-yl-5,6,7,8-tetrahydropyrido[4,3-d]pyrimidin-4-yl]amino}ethyl)carbamate], the inhibition constant (Ki) worked out at 95.3 nM.
As to `COc1cccc(C2CN(c3nc(-c4cccnc4)nc4c3CN(C(=O)Nc3ccccc3)CC4)CCN2)c1` (stereo not drawn) [Compound 1-4, 4-[3-(3-methoxyphenyl)-piperazin-1-yl]-N-phenyl-2-pyridin-3-yl-7,8-dihydropyrido[4,3-d]pyrimidine-6(5H)-carboxamide], the Ki stood at 153 nM.
For `O=C(Nc1ccccc1)N1CCc2nc(-c3ccc(F)nc3)nc(NCCc3ccccn3)c2C1` [Compound 1-6, 2-(6-fluoropyridin-3-yl)-N-phenyl-4-[(2-pyridin-2-ylethyl)amino]-7,8-dihydropyrido[4,3-d]pyrimidine-6(5H)-carboxamide], the Ki is 114 nM.
Under `O=C(Nc1ccccc1)N1CCc2nc(-c3ccncc3)nc(NCCc3ccccn3)c2C1` [Compound 1-1, N-phenyl-2-pyridin-4-yl-4-[(2-pyridin-2-ylethyl)amino]-7,8-dihydropyrido[4,3-d]pyrimidine-6(5H)-carboxamide] stands 47.9 nM.
On to `CC(C)CC(=O)N1CCc2nc(-c3cncc(-c4cncnc4)c3)nc(N(C)Cc3ccccc3)c2C1` [Compound 1-7, 1-{4-[benzyl(methyl)amino]-2-[5-(pyrimidin-5-yl)pyridin-3-yl[-7,8-dihydropyrido]4,3-d]pyrimidin-6(5H)-yl}-3-methylbutan-1-one], for which the Ki was found to be 63 nM.
Under `CC(C)CC(=O)N1CCc2nc(-c3cncc(-c4cn[nH]c4)c3)nc(N(C)Cc3ccccc3)c2C1` [Compound 1-8, 1-{4-[benzyl(methyl)amino]-2-[5-(1H-pyrazol-4-yl)pyridin-3-yl]-7,8-dihydropyrido[4,3-d]pyrimidin-6(5H)-yl}-3-methylbutan-1-one] stands 15 nM; under `O=C(Nc1ccccc1)N1CCc2nc(-c3cccnc3)nc(NCc3c[nH]c(-c4ccccc4)n3)c2C1` [Compound 1-9, N-phenyl-4-{[(2-phenyl-1H-imidazol-4-yl)methyl]amino}-2-(pyridin-3-yl)-7,8-dihydropyrido[4,3-d]pyrimidine-6(5H)-carboxamide], 2.19 nM.
As to `O=C(Nc1ccccc1)N1CCc2nc(-c3ccncc3)nc(N3CCc4ccncc4C3)c2C1` [Compound 1-3, 4-(3,4-dihydro-2,7-naphthyridin-2(1H)-yl)-N-phenyl-2-pyridin-4-yl-7,8-dihydropyrido[4,3-d]pyrimidine-6(5H)-carboxamide], the Ki is 162 nM.

For the origin of these results see US8691827B2, “Amino tetrahydro-pyridopyrimidine PDE10 inhibitors” (Merck Sharp & Dohme Corp., priority 2009, dated 2014).
